Laboratory results as given in patent US12065443B2, “Compounds and pharmaceutical compositions thereof for the treatment of diseases” (priority 2017, dated 2024).
pEC50, pIC50: −log10 of the molar value. Where two headings read alike, the source gives them in different places.

How the values were obtained:
SIK3 [1] = target: T1, SIK3 (Homo sapiens, UniProt Q9Y2K2); assay: biochemical; details: ADP-Glo SIK kinase assay
T1 construct: purchased SignalChem S12-11G-100
In short: (§1)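 Wells with 1% DMSO or 10 μM staurosporine (final) define the control window. The kinase reaction with substrate and ATP runs 120 min at RT, followed by ADP-Glo detection: ATP depletion (40 min) and ADP-derived luminescence (30 min).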

SIK1 [2] = target: T2, SIK1 (Homo sapiens, UniProt P57059); assay: biochemical; details: ADP-Glo SIK kinase assay
T2 construct: purchased Carna Biosciences 02-131
In short: as §1

SIK2 [3] = target: T3, SIK2 (Homo sapiens, UniProt Q9H0K1); assay: biochemical; details: ADP-Glo SIK kinase assay
T3 construct: purchased ThermoFisher Scientific PV4792
In short: as §1

[4] = tested on: LPS triggered IL-10 secretion in monocyte-derived macrophages (MdM); assay: MdM assay: LPS-triggered IL-10 (ELISA); format: cell-based, human; details: maximal fold change vs LPS only, median across assays
In short: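 CD14+ monocytes isolated from human buffy-coat PBMCs and differentiated to macrophages for 10 days. Cells pre-treated with compound 1 h at 37° C (0.2% DMSO), then stimulated with 200 ng/mL LPS; IL-10 in supernatant at 2 h measured by ELISA (A450). Maximal fold change versus LPS only reported as median of two or more runs.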

[5] = tested on: LPS-induced TNFα secretion in monocyte-derived macrophages (MdM); assay: MdM assay: LPS-triggered TNFα (ELISA); format: cell-based, human; details: Homo sapiens, Macrophage, LPS-triggered TNFα inhibition
In short: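 Human CD14+ monocytes isolated from buffy-coat PBMCs by magnetic beads, differentiated to macrophages; on day 10 compound preincubated 1 h at 37 °C, then LPS 200 ng/mL added (0.2% DMSO). Supernatant taken after 20 h; TNFα quantified by sandwich ELISA against standard curve.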

SIK3 [6] = target: T1, SIK3; assay: biochemical
In short: (§2)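 AMARA peptide phosphorylation by SIK1–3 is quantified through ^33P uptake from a labeled/unlabeled ATP blend. Staurosporine at 10 μM final defines full inhibition, 1% DMSO the uninhibited signal. Quench uses phosphoric acid; counting follows filter capture.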

SIK1 [7] = target: T2, SIK1; assay: biochemical; details: 33P radioactive SIK kinase assay, AMARA peptide, 10 μM ATP; read-out: SIK1 IC50
In short: as §2

SIK2 [8] = target: T3, SIK2; assay: biochemical; details: 33P radioactive SIK kinase assay, AMARA peptide, 10 μM ATP
In short: as §2

T2 sequence (P57059 whole entry): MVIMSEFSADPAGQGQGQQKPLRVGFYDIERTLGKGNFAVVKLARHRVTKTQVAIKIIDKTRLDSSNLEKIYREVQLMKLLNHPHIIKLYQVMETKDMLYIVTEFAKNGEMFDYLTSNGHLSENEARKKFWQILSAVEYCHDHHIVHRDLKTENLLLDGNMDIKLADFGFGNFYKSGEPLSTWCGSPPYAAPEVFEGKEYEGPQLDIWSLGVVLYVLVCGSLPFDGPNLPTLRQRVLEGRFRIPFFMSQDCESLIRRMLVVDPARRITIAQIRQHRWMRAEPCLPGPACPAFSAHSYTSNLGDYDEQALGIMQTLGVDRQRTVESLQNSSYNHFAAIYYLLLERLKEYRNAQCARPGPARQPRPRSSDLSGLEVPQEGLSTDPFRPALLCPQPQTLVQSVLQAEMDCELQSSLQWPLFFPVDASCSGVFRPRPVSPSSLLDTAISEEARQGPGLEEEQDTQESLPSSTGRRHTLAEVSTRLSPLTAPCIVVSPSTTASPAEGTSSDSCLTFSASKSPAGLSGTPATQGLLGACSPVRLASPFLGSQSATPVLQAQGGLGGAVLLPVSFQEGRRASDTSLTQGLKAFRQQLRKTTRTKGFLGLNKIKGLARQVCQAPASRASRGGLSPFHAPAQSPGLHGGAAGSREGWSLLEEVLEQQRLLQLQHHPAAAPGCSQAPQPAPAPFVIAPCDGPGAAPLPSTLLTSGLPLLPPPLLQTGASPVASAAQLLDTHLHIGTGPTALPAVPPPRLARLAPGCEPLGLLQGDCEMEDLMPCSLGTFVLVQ
T3 sequence (Q9H0K1 whole entry): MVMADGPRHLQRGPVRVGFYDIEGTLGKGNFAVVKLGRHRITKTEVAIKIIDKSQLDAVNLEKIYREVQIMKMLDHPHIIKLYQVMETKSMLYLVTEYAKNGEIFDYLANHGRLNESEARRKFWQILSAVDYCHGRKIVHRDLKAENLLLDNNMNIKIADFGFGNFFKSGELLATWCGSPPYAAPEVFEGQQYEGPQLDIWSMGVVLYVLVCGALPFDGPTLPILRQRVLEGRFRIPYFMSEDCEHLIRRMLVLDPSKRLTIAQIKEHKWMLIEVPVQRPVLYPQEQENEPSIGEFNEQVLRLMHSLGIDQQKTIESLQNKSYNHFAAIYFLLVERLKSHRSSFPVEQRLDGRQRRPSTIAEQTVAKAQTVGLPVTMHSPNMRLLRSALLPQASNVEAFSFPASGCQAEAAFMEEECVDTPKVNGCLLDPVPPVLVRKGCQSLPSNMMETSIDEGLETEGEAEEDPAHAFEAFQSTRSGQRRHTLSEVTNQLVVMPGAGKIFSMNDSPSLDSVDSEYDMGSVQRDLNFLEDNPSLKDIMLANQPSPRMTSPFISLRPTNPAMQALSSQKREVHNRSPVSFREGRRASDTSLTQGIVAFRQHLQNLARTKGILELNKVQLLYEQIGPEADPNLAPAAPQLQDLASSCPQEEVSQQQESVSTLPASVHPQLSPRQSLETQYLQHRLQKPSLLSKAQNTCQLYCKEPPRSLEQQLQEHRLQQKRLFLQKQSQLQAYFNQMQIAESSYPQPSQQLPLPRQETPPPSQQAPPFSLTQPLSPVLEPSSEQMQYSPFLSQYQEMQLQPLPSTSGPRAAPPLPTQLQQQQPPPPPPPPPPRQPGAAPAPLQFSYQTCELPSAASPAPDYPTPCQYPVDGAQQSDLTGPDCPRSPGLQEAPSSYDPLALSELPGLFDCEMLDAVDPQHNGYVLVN
T1 sequence (Q9Y2K2 whole entry): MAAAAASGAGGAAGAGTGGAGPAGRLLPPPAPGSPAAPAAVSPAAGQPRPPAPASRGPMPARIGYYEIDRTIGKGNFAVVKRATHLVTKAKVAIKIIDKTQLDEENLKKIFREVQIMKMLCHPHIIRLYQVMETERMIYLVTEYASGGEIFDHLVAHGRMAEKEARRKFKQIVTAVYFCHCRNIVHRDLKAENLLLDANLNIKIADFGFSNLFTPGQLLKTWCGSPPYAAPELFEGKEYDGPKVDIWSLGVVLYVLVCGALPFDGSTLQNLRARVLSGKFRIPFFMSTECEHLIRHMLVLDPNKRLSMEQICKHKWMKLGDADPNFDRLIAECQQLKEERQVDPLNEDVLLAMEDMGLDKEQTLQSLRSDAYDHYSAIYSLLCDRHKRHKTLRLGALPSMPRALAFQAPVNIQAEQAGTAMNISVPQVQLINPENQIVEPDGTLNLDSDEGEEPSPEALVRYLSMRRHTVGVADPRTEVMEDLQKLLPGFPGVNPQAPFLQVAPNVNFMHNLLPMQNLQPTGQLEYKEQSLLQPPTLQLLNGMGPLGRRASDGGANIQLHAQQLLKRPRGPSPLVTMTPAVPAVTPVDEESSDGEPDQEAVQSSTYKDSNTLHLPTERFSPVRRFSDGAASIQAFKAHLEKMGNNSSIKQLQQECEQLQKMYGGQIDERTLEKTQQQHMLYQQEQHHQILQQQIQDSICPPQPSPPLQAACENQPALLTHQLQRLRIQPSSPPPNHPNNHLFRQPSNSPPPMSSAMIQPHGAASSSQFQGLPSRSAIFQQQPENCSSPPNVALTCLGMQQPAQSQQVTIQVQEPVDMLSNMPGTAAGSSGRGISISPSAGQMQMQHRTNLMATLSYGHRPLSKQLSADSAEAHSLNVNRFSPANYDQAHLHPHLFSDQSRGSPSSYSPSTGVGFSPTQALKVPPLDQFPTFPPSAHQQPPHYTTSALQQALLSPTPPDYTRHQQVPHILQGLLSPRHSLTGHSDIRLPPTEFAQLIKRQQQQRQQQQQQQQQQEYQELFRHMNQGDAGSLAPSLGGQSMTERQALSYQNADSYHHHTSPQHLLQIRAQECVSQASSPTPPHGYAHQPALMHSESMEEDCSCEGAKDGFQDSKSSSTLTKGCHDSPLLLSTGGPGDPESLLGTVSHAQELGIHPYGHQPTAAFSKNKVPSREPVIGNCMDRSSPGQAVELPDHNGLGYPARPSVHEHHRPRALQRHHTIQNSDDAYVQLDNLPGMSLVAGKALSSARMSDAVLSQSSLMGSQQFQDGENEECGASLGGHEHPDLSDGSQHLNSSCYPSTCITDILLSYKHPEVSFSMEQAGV

Row | SMILES | pIC50 (SIK3 [1]) | pIC50 (SIK1 [2]) | pIC50 (SIK2 [3]) | pEC50 [5] | pIC50 (SIK3 [6]) | pIC50 (SIK1 [7]) | pIC50 (SIK2 [8]) | IL-10 FCmax median [4]
1 | CNc1cc(-c2cnc3cc(-c4cnn(C)c4)ccn23)cc(OC)c1C(=O)NCC(F)(F)F [Cpd 204] | 8.00 to 11.00 | 8.00 to 11.00 | 8.00 to 11.00 | 7.00 to 10.00 | 8.00 to 11.00 | 8.00 to 11.00 | 8.00 to 11.00 | ++ (>1.5-4.5)
2 | COc1cc(-c2cnc3cc(-c4cnn(C5CN(CCC#N)C5)c4)ccn23)cc(OC)c1C(=O)NCC(F)(F)F [Cpd 264, 4-[7-[1-[1-(2-cyanoethyl)azetidin-3-yl]pyrazol-4-yl]imidazo[1,2-a]pyridin-3-yl]-2,6-dimethoxy-N-(2,2,2-trifluoroethyl)benzamide] | 8.00 to 11.00 | 8.00 to 11.00 | 8.00 to 11.00 | 7.00 to 10.00 | – | – | – | ++ (>1.5-4.5)
3 | COc1cc(-c2cnc3cc(-c4ccc(C)nn4)ccn23)cc2c1C(=O)N(CC(F)(F)F)CC2 [Cpd 275, 8-methoxy-6-[7-(6-methylpyridazin-3-yl)imidazo[1,2-a]pyridin-3-yl]-2-(2,2,2-trifluoroethyl)-3,4-dihydroisoquinolin-1-one] | 8.00 to 11.00 | 7.00 to 8.00 | 8.00 to 11.00 | 7.00 to 10.00 | – | – | – | ++ (>1.5-4.5)
4 | CCOC(=O)C(C)Cn1cc(-c2ccn3c(-c4cc(OC)c(C(=O)NCC(F)(F)F)c(OC)c4)cnc3c2)cn1 (stereo not drawn) [Cpd 293, ethyl 3-[4-[3-[3,5-dimethoxy-4-(2,2,2-trifluoroethyl-carbamoyl)phenyl]imidazo[1,2-a]pyridin-7-yl]pyrazol-1-yl]-2-methyl-propanoate] | 8.00 to 11.00 | 8.00 to 11.00 | 8.00 to 11.00 | 7.00 to 10.00 | – | – | – | ++ (>1.5-4.5)
5 | COc1cc(-n2cnc3cc(-c4cnn(C)c4)ccc32)cc(OC)c1C(=O)NC(C)(C)C [compound 76, N-tert-butyl-2,6-dimethoxy-4-[5-(1-methylpyrazol-4-yl)benzimidazol-1-yl]benzamide] | < 6.30 | < 6.30 | < 6.30 | < 5.30 | < 6.30 | < 6.30 | < 6.30 | –
6 | COc1cc(-c2cnc3cc(-c4cnn(C)c4)ccn23)cc(OC)c1C(=O)N1CC(C(F)(F)F)C1 [compound 213, [2,6-dimethoxy-4-[7-(1-methylpvrazol-4-yl)imidazo[1,2-a]pyridin-3-yl]phenyl]-[3-(trifluoromethyl)azetidin-1-yl]methanone] | 8.00 to 11.00 | 8.00 to 11.00 | 8.00 to 11.00 | 7.00 to 10.00 | 8.00 to 11.00 | 8.00 to 11.00 | 8.00 to 11.00 | –
7 | COc1cc(-c2cnc3cc(-c4cn(C)cn4)ccn23)cc(OC)c1C(=O)N[C@@H](C)C(F)(F)F [compound 216, 2,6-dimethoxy-4-[7-(1-methylimidazol-4-yl)imidazo[1,2-a]pyridin-3-yl]-N-[(1S)-2,2,2-trifluoro-1-methyl-ethyl]benzamide] | 7.00 to 8.00 | 6.30 to 7.00 | 7.00 to 8.00 | 5.30 to 6.00 | 6.30 to 7.00 | 6.30 to 7.00 | 7.00 to 8.00 | –
8 | COc1cc(-c2cnc3cc(-c4cnnc(C)c4)ccn23)cc(OC)c1C(=O)NCC(F)(F)F [compound 252, 2,6-dimethoxy-4-[7-(6-methylpyridazin-4-yl)imidazo[1,2-a]pyridin-3-yl]-N-(2,2,2-trifluoroethyl)benzamide] | 8.00 to 11.00 | 6.30 to 7.00 | 7.00 to 8.00 | 6.00 to 7.00 | 8.00 to 11.00 | 6.30 to 7.00 | 7.00 to 8.00 | –
9 | COc1cc(-c2cnc3cc(-c4cnn(C)c4)ccn23)cc2c1C(=O)N(CC(F)(F)F)C2 [compound 261, 7-methoxy-5-[7-(1-methylpyrazol-4-yl)imidazo[l,2-a]pyridin-3-yl]-2-(2,2,2-trifluoroethyl)isoindolin-1-one] | 8.00 to 11.00 | 8.00 to 11.00 | 8.00 to 11.00 | 7.00 to 10.00 | 8.00 to 11.00 | 7.00 to 8.00 | 8.00 to 11.00 | –

The next lines start with results.

Row | pIC50 (SIK3 [1]) | pIC50 (SIK1 [2]) | pIC50 (SIK2 [3]) | pEC50 [5] | pIC50 (SIK3 [6]) | pIC50 (SIK1 [7]) | pIC50 (SIK2 [8]) | SMILES | IL-10 FCmax median [4]
10 | 8.00 to 11.00 | 8.00 to 11.00 | 8.00 to 11.00 | 7.00 to 10.00 | 8.00 to 11.00 | 7.00 to 8.00 | 8.00 to 11.00 | COc1cc(-c2cnc3cc(-c4cnn(C)c4)ccn23)cc2c1C(=O)N(C1CC1)CC2 [compound 262, 2-cyclopropyl-8-methoxy-6-[7-(1-methylpyrazol-4-yl)imidazo[1,2-a]pyridin-3-yl]-3,4-dihydroisoquinolin-1-one] | –
11 | 8.00 to 11.00 | 8.00 to 11.00 | 8.00 to 11.00 | 7.00 to 10.00 | – | – | – | COc1cc(-c2cnc3cc(-c4cnn(C5CN(CC#N)C5)c4)ccn23)cc(OC)c1C(=O)NCC(F)(F)F [compound 265, 4-[7-[1-[1-(cyanomethyl)azetidin-3-yl]pyrazol-4-yl]imidazo[1,2-a]pyridin-3-yl]-2,6-dimethoxy-N-(2,2,2-trifluoroethyl)benzamide] | ++ (>1.5-4.5)
12 | 8.00 to 11.00 | 8.00 to 11.00 | 8.00 to 11.00 | 7.00 to 10.00 | – | – | – | COc1cc(-c2cnc3cc(-c4cc(C)no4)ccn23)cc(OC(F)F)c1C(=O)NC1CC1 [compound 270, N-cyclopropyl-2-(difluoromethoxy)-6-methoxy-4-[7-(3-methylisoxazol-5-yl)imidazo[1,2-a]pyridin-3-yl]benzamide] | –
13 | 8.00 to 11.00 | 7.00 to 8.00 | 8.00 to 11.00 | 6.00 to 7.00 | – | – | – | COc1cc(-c2cnc3cc(-c4cnnc(C)c4)ccn23)cc(OC(F)F)c1C(=O)NC1CC1 [compound 272, N-cyclopropyl-2-(difluoromethoxy)-6-methoxy-4-[7-(6-methylpyridazin-4-yl)imidazo[1,2-a]pyridin-3-yl]benzamide] | ++ (>1.5-4.5)
14 | 8.00 to 11.00 | 7.00 to 8.00 | 8.00 to 11.00 | 6.00 to 7.00 | – | – | – | COc1cc(-c2cnc3cc(-c4cncn4C)ccn23)cc(OC(F)F)c1C(=O)NC1CC1 [compound 274, N-cyclopropyl-2-(difluoromethoxy)-6-methoxy-4-[7-(3-methylimidazol-4-yl)imidazo[1,2-a]pyridin-3-yl]benzamide] | –
15 | 8.00 to 11.00 | 8.00 to 11.00 | 8.00 to 11.00 | 6.00 to 7.00 | – | – | – | COc1cc(-c2cnc3cc(-c4cnn(C)c4)ccn23)cc(OCCO)c1C(=O)NC1CC1 [compound 279, N-cyclopropyl-2-(2-hydroxyethoxy)-6-methoxy-4-[7-(1-methylpyrazol-4-yl)imidazo[1,2-a]pyridin-3-yl]benzamide] | ++ (>1.5-4.5)
16 | 8.00 to 11.00 | 8.00 to 11.00 | 8.00 to 11.00 | 7.00 to 10.00 | – | – | – | COc1ccc(-c2ccn3c(-c4cc(OC)c(C(=O)NC5CC5)c(OC(F)F)c4)cnc3c2)nn1 [compound 280, N-cyclopropyl-2-(difluoromethoxy)-6-methoxy-4-[7-(6-methoxypyridazin-3-yl)imidazo[1,2-a]pyridin-3-yl]benzamide] | ++ (>1.5-4.5)
17 | 8.00 to 11.00 | 8.00 to 11.00 | 8.00 to 11.00 | 7.00 to 10.00 | – | – | – | COc1cc(-c2cnc3cc(-c4ccc(C5CC5)nn4)ccn23)cc(OC(F)F)c1C(=O)NC1CC1 [compound 285, N-cyclopropyl-4-[7-(6-cyclopropyl-pyridazin-3-yl)imidazo[1,2-a]pyridin-3-yl]-2-(difluoromethoxy)-6-methoxy-benzamide] | –
18 | 8.00 to 11.00 | 8.00 to 11.00 | 8.00 to 11.00 | 7.00 to 10.00 | – | – | – | COc1cc(-n2cnc3cc(-c4cn[nH]c4)ccc32)cc(OC(F)F)c1C(=O)NC1CC1 [compound 306, N-cyclopropyl-2-(difluoromethoxy)-6-methoxy-4-[5-(1H-pyrazol-4-yl)benzimidazol-1-yl]benzamide] | –
19 | 8.00 to 11.00 | 8.00 to 11.00 | 8.00 to 11.00 | 7.00 to 10.00 | – | – | – | COc1cc(-c2cnc3cc(-c4cn[nH]c4)ccn23)cc(OC(F)F)c1C(=O)NC1CC1 [compound 307, N-cyclopropyl-2-(difluoromethoxy)-6-methoxy-4-[7-(1H-pyrazol-4-yl)imidazo[1,2-a]pyridin-3-yl]benzamide] | –
